Results on 1 cell line are retold here after the supplement of paper PMC10307832.

What all share (assay): relative viability (nuclei count vs DMSO), 5 days (fraction); higher = more cells survive
Compound in assay [1]: COc1cc2c(Oc3ccc4[nH]c(C)cc4c3F)ncnc2cc1OCCCN1CCCC1 [Cediranib] + Cc1cc(Nc2cc(N3CCN(C)CC3)nc(Sc3ccc(NC(=O)C4CC4)cc3)n2)n[nH]1 [Tozasertib] (partner 0.1 µM)
The method, boiled down:
(§1)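 Relative viability was taken as the ratio of nuclei in treated wells to nuclei in vehicle wells. Lung cancer cell lines in 1536-well plates received compounds by pin tool one day after seeding, either one drug alone or a fixed anchor-drug dose plus five library-drug doses (not always all listed) in √10 steps. Nuclei were counted on 4× images after 5 days of treatment, and values are medians of duplicate plates.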

Compound in assay [2]: Nc1ncn([C@H]2C[C@H](O)[C@@H](CO)O2)c(=O)n1 [Decitabine] + CC(=O)c1c(C)c2cnc(Nc3ccc(N4CCNCC4)cn3)nc2n(C2CCCC2)c1=O [Palbociclib] (partner 0.5 µM)
The method, boiled down: as §1

Compound in assay [3]: Nc1ncn([C@H]2C[C@H](O)[C@@H](CO)O2)c(=O)n1 [Decitabine] + C[C@@H](Oc1cc(-c2cnn(C3CCNCC3)c2)cnc1N)c1c(Cl)ccc(F)c1Cl [Crizotinib] (partner 1 µM)
A digest of the protocol: as §1

Compound in assay [4]: Nc1ncn([C@H]2C[C@H](O)[C@@H](CO)O2)c(=O)n1 [Decitabine] + N=C(N)NC(=N)NCCc1ccccc1 [Phenformin] (partner 250 µM)
A digest of the protocol:
as §1

Consider UMC-11, for which the relative viability in assay [1] (first compound 0.04 µM) came to 0.213; in assay [1] (first compound 0.4 µM), 0.201; in assay [1] (first compound 4 µM), 0.2; in assay [2] (first compound 0.04 µM) it was 0.344; in assay [2] (first compound 0.1265 µM) it was 0.276; in assay [2] (first compound 0.4 µM) it was 0.313. Moreover, the relative viability in assay [2] (first compound 1.265 µM) was found to be 0.283; in assay [2] (first compound 4 µM) it was 0.285; in assay [3] (first compound 0.04 µM), 0.483; in assay [3] (first compound 0.1265 µM), 0.451; in assay [3] (first compound 0.4 µM), 0.398; in assay [3] (first compound 1.265 µM), 0.209. The relative viability was 0.168 in assay [3] (first compound 4 µM); 0.31 in assay [4] (first compound 0.04 µM); 0.32 in assay [4] (first compound 0.1265 µM); 0.308 in assay [4] (first compound 0.4 µM); 0.266 in assay [4] (first compound 1.265 µM); 0.274 in assay [4] (first compound 4 µM).
